# Measurements taken from patent publication US20170217948A1, “XANTHINE OXIDASE INHIBITOR” (Teijin Pharma Limited, priority 2014, published 2017).
# Like-named read-outs stand apart in the source and are kept apart here.
# Key:
# [1] = molecular target: XO activity (oxidase-type xanthine oxidoreductase) (Rattus norvegicus, UniProt P22985); test: Prolonged inhibition of tissue and plasma XO activity after oral administration (pterin-based assay); settings: 27 h
# Procedure: The tissue includes liver, kidney, adipose tissue, intestine and vessel.
# A test compound suspended in a 0.5% methylcellulose solution was administered to 7 to 9 week-old Sprague-Dawley male rats (Japan Charles River Co.) by oral gavage administration using a feeding needle. The blood was collected from the abdominal vein and tissue was collected at 24 or 27 hours after administration. Plasma sample was prepared by centrifugation.
# Tissue XO activity, tissue XOR activity and plasma XO activity were measured by the pterin-based assay which utilizes the reaction that pterin is oxidized by each type of xanthine oxidoreductase to produce fluorescent isoxanthopterin. […] Then the homogenates were centrifuged 12,000 rpm for 15 min at 4° C. When measured XO activity, the supernatant of tissue and plasma were respectively co-incubated with 50 μM pterin solution at 37° C. When measured XOR activity, the supernatant of tissue homogenate was co-incubated with 50 μM pterin and 50 μM methylene blue solution at 37° C. As a control, oxidase-type xanthine oxidoreductase (from buttermilk, manufactured by Calbiochem Novabiochem Corp.) was also incubated with pterin solution in the same manner. XO activity and XOR activity of the samples were determined from fluorescence intensity which normalized by the intensity value of control and protein concentration.
# The percentage of XO activity inhibition and XOR activity inhibition were determined by the following expression:
# Percentage of XO or XOR activity inhibition (%)=(XO or XOR activity of the control animal−XO or XOR activity of the test compound-administered animal)×100/XO or XOR activity of the control animal.
# [2] = Hypouricemic effect (oxonic acid-induced hyperuricemic beagle dogs); type: in vivo; settings: hyperuricemic beagle dog, oral, 10 mg/kg, 8 hours after administration
# Procedure: Potassium oxonate (50 mg/kg) was subcutaneously administrated before and 4 hours after compound administration. After the blood was collected from the cephalic vein at 8 hours after administration, the plasma was separated. The level of uric acid in the plasma sample was measured by LC-MS/MS method and the percentage of hypouricemic effect was determined by the following expression:
# Percentage of hypouricemic effect (%)=(Level of uric acid of the control animal−Level of uric acid of the test compound-administered animal)×100/Level of uric acid of the control animal.
# [3] = read-out: % inhibition of XO activity (vs. vehicle), Kidney, 1 mg/kg, 27 hours after administration
# [4] = read-out: % inhibition of XO activity (vs. vehicle), Kidney, 10 mg/kg, 27 hours after administration
# [5] = read-out: % inhibition of XO activity (vs. vehicle), Liver, 1 mg/kg, 27 hours after administration
# [6] = read-out: % inhibition of XO activity (vs. vehicle), Liver, 10 mg/kg, 27 hours after administration
# [7] = read-out: % inhibition of XO activity (vs. vehicle), Plasma, 1 mg/kg, 27 hours after administration
# [8] = read-out: % inhibition of XO activity (vs. vehicle), Plasma, 10 mg/kg, 27 hours after administration
# XO activity (oxidase-type xanthine oxidoreductase), sequence (P22985 whole entry): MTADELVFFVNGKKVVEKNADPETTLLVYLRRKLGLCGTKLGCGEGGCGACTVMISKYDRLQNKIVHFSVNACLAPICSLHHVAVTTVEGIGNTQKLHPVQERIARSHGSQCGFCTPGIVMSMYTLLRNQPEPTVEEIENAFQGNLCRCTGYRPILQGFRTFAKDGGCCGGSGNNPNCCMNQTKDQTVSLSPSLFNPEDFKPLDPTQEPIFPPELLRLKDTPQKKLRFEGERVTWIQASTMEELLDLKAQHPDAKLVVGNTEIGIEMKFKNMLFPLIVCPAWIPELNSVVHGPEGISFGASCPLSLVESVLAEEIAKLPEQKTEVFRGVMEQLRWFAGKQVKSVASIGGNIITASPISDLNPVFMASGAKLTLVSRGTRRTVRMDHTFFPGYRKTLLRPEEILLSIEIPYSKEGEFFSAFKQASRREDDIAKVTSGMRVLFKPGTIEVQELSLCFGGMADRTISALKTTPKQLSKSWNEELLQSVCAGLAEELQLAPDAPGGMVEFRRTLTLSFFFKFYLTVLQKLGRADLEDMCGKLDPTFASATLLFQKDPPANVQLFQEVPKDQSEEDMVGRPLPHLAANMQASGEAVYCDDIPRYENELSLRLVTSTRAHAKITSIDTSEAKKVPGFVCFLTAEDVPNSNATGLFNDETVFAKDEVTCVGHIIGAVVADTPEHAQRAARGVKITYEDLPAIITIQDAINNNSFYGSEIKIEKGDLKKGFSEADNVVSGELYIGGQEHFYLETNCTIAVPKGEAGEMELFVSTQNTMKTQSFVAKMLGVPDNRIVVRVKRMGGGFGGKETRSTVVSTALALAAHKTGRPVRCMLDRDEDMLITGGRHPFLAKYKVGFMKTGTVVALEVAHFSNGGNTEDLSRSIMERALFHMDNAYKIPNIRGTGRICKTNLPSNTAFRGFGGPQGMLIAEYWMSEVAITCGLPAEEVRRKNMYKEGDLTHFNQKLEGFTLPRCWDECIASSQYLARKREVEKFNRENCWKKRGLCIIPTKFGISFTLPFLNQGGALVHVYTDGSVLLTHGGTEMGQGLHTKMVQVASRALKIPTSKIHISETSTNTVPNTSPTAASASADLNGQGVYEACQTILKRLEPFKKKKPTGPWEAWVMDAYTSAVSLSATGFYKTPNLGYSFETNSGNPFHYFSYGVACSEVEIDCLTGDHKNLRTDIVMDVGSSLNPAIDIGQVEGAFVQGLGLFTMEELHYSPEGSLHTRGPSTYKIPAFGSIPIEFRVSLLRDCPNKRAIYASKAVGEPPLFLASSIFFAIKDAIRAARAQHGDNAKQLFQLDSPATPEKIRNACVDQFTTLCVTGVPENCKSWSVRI
"inhibition in vivo at 1 mg/kg [1, 3] [%]","inhibition in vivo at 10 mg/kg [1, 4] [%]","inhibition in vivo at 1 mg/kg [1, 5] [%]","inhibition in vivo at 10 mg/kg [1, 6] [%]","inhibition in vivo at 1 mg/kg [1, 7] [%]","inhibition in vivo at 10 mg/kg [1, 8] [%]",SMILES,hypouricemic effect [2]
≥ 60,≥ 70,≥ 80,≥ 80,≥ 25,≥ 40,"Cc1nc(-c2ccc(OCC(C)C)c(-n3ccnn3)c2)sc1C(=O)O [Compound 17, 4-methyl-2-[4-(2-methylpropoxy)-3-(1H-1,2,3-triazol-1-yl)phenyl]-1,3-thiazole-5-carboxylic acid]",
,,,,,,"Cc1nc(-c2ccc(OCC(C)C)c(-n3cnnn3)c2)sc1C(=O)O [Compound 25, 4-methyl-2-[4-(2-methylpropoxy)-3-(1H-1,2,3,4-tetrazol-1-yl)phenyl]-1,3-thiazole-5-carboxylic acid]",showed a hypouricemic effect
≥ 60,≥ 70,≥ 80,≥ 80,≥ 25,≥ 40,"Cc1nc(-c2ccc(OCC(C)(C)C)c(-n3cnnn3)c2)sc1C(=O)O [Compound 26, 2-[4-(2,2-dimethylpropoxy)-3-(1H-1,2,3,4-tetrazol-1-yl)phenyl]-4-methyl-1,3-thiazole-5-carboxylic acid]",
